In PubChem BioAssay (NCI):
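The compound was tested at five concentrations on cells cultured in 96-well plates, with a 48-hour exposure period. Definition used: TGI = concentration required for complete inhibition of growth.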

How the values were obtained:
Experiment in all cases: DTP human tumour cell line panel, 48 h
CAKI-1 renal = tested on: CAKI-1 renal
A549 NSCLC = tested on: A549 NSCLC
SNB-75 CNS = tested on: SNB-75 CNS
MDA-MB-231 breast = tested on: MDA-MB-231 breast
NCI-H522 lung = tested on: NCI-H522 lung
SK-MEL-5 melanoma = tested on: SK-MEL-5 melanoma
OVCAR-4 ovarian = tested on: OVCAR-4 ovarian
UO-31 renal = tested on: UO-31 renal
MDA-MB-435 = tested on: MDA-MB-435
K-562 leukemia = tested on: K-562 leukemia

Oc1[nH]c2ccccc2c1N=NC(=S)NCc1ccccn1
TGI (CAKI-1 renal): 11.7 µM
TGI (A549 NSCLC): 13.7 µM
TGI (SNB-75 CNS): 6.6 µM
TGI (MDA-MB-231 breast): 20.8 µM
TGI (NCI-H522 lung): 14.7 µM
TGI (SK-MEL-5 melanoma): 12 µM
TGI (OVCAR-4 ovarian): 21 µM
TGI (UO-31 renal): 6.56 µM
TGI (MDA-MB-435): 17.4 µM

Fc1sc2c(c1F)C1CCC2C1 (stereo unspecified)
TGI (CAKI-1 renal): > 100 µM
TGI (A549 NSCLC): > 100 µM
TGI (SNB-75 CNS): > 100 µM
TGI (MDA-MB-231 breast): > 100 µM
TGI (NCI-H522 lung): > 100 µM
TGI (SK-MEL-5 melanoma): > 100 µM
TGI (OVCAR-4 ovarian): > 100 µM
TGI (UO-31 renal): > 100 µM
TGI (MDA-MB-435): > 100 µM

CC1=CCC(=O)[C@]2(C)C(CC(=O)O)[C@]3(C)C4=C(C)C(c5ccoc5)C[C@@H]4O[C@@H]3[C@H](O)[C@@H]12 (stereo partly specified)
TGI (CAKI-1 renal): > 100 µM
TGI (A549 NSCLC): > 100 µM
TGI (SNB-75 CNS): > 100 µM
TGI (MDA-MB-231 breast): > 100 µM
TGI (NCI-H522 lung): > 100 µM
TGI (SK-MEL-5 melanoma): > 100 µM
TGI (OVCAR-4 ovarian): > 100 µM
TGI (UO-31 renal): > 100 µM
TGI (MDA-MB-435): > 100 µM

Cc1cccc2c1C(=O)/C(=C/c1ccccc1C(=O)O)C2
TGI (CAKI-1 renal): > 100 µM
TGI (A549 NSCLC): > 100 µM
TGI (K-562 leukemia): > 100 µM
TGI (SNB-75 CNS): > 100 µM
TGI (NCI-H522 lung): > 100 µM
TGI (SK-MEL-5 melanoma): > 100 µM
TGI (OVCAR-4 ovarian): > 100 µM
TGI (UO-31 renal): > 100 µM
TGI (MDA-MB-435): > 100 µM

O=c1cc(-c2ccccc2)[nH]c2c(F)ccc(F)c12
TGI (CAKI-1 renal): > 100 µM
TGI (A549 NSCLC): > 100 µM
TGI (K-562 leukemia): > 100 µM
TGI (SNB-75 CNS): 59 µM
TGI (NCI-H522 lung): > 100 µM
TGI (SK-MEL-5 melanoma): > 100 µM
TGI (OVCAR-4 ovarian): > 100 µM
TGI (UO-31 renal): > 100 µM

CC(=O)O[C@H]1CC[C@]2(C=O)[C@H]3CC[C@]4(C)[C@@H](C5=CC(=O)OC5)CC[C@]4(O)[C@@H]3CC[C@]2(O)C1
TGI (CAKI-1 renal): 0.06 µM
TGI (A549 NSCLC): 0.253 µM
TGI (K-562 leukemia): > 100 µM
TGI (MDA-MB-231 breast): 3.14 µM
TGI (NCI-H522 lung): 0.357 µM
TGI (SK-MEL-5 melanoma): 0.473 µM
TGI (OVCAR-4 ovarian): 0.35 µM
TGI (UO-31 renal): 1.48 µM
TGI (MDA-MB-435): 0.984 µM

C/C(=N/NC(=O)c1ccccc1Nc1ccccc1C(=O)N/N=C(\C)c1ccc(C)cc1)c1ccc(C)cc1
TGI (CAKI-1 renal): > 100 µM
TGI (A549 NSCLC): > 100 µM
TGI (K-562 leukemia): > 100 µM
TGI (SNB-75 CNS): > 100 µM
TGI (MDA-MB-231 breast): > 100 µM
TGI (SK-MEL-5 melanoma): > 100 µM
TGI (OVCAR-4 ovarian): > 100 µM
TGI (UO-31 renal): > 100 µM
TGI (MDA-MB-435): > 100 µM

COc1ccc(C(OCC2OC(n3ccc(Oc4c(F)c(F)c(F)c(F)c4F)nc3=O)CC2OP(OCCC#N)N(C(C)C)C(C)C)(c2ccccc2)c2ccc(OC)cc2)cc1 (stereo unspecified)
TGI (CAKI-1 renal): > 100 µM
TGI (A549 NSCLC): > 100 µM
TGI (K-562 leukemia): > 100 µM
TGI (SNB-75 CNS): > 100 µM
TGI (MDA-MB-231 breast): > 100 µM
TGI (NCI-H522 lung): > 100 µM
TGI (SK-MEL-5 melanoma): > 100 µM
TGI (UO-31 renal): > 100 µM
TGI (MDA-MB-435): > 100 µM

C(=N\Nc1nnc(-c2nnc(N/N=C/c3ccccc3)o2)o1)/c1ccccc1
TGI (CAKI-1 renal): > 10 µM
TGI (A549 NSCLC): > 10 µM
TGI (K-562 leukemia): > 10 µM
TGI (MDA-MB-231 breast): > 10 µM
TGI (SK-MEL-5 melanoma): > 10 µM
TGI (OVCAR-4 ovarian): > 10 µM
TGI (UO-31 renal): > 10 µM
TGI (MDA-MB-435): > 10 µM

CN(C)CC(C)(C)C(=O)/C=C/c1ccccc1
TGI (CAKI-1 renal): 40.3 µM
TGI (A549 NSCLC): > 100 µM
TGI (K-562 leukemia): 33.7 µM
TGI (SNB-75 CNS): 37.7 µM
TGI (NCI-H522 lung): 23 µM
TGI (SK-MEL-5 melanoma): 30.1 µM
TGI (OVCAR-4 ovarian): 31.6 µM
TGI (UO-31 renal): 23 µM

NS(=O)(=O)c1ccc(NS(=O)(=O)c2ccc(NC(=O)N(c3ccccc3)c3ccccc3)cc2)cc1
TGI (CAKI-1 renal): > 100 µM
TGI (A549 NSCLC): > 100 µM
TGI (K-562 leukemia): > 100 µM
TGI (MDA-MB-231 breast): > 100 µM
TGI (NCI-H522 lung): > 100 µM
TGI (SK-MEL-5 melanoma): > 100 µM
TGI (OVCAR-4 ovarian): > 100 µM
TGI (UO-31 renal): > 100 µM
TGI (MDA-MB-435): 77 µM
